molecular target: human CD28 Protein, His Tag (Homo sapiens, UniProt P10747); experiment: MST / TRIC; type: binding
Sequence (P10747 19-152): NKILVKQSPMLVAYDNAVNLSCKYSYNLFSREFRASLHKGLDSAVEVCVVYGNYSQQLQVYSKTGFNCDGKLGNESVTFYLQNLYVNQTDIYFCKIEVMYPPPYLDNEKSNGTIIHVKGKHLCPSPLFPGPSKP

Compound	Kd [µM]
O=C(Cc1ccccc1)c1cc(O)c(O)c([N+](=O)[O-])c1 [1F19, Nebicapone]	45.1 ± 68.9
CCN(CC)C(=O)/C(C#N)=C/c1cc(O)c(O)c([N+](=O)[O-])c1 [1I03, Entacapone]	45.6 ± 52.1
CN1c2ccc([N+](=O)[O-])cc2N=C(c2ccc(C(=O)O)cc2)c2cc3c(cc21)C(C)(C)CCC3(C)C [1K19, HX531]	245 ± 151
Nc1c(C(=O)O)c2nc3c(C(=O)O)cccc3oc-2cc1=O [1O03, Cinnabarinic acid]	14.6 ± 8.23
CNc1nc2ccccc2n2c(-c3ccc(O)c(O)c3)cnc12 [2B06, EAPB 02303]	8.37 ± 4.42
Cc1nc(C#Cc2ccnc(Cl)c2)c(C)n1-c1ccc(OC(F)(F)F)cc1 [2B10, CTEP]	236 ± 110
CC(C)=CCC/C(C)=C/CC/C(C)=C/C=C/C(C)=C/C(=O)O [2L10, Peretinoin]	283 ± 398

molecular target: Biotinylated human CD28 protein (His-tagged, AviTag) (Homo sapiens, UniProt P10747); experiment: SPR; type: binding
Sequence (P10747 19-152 limits assumed): as the sequence (P10747 19-152) above

Compound	Kd [µM]
Cc1nc(C#Cc2ccnc(Cl)c2)c(C)n1-c1ccc(OC(F)(F)F)cc1 [2B10, CTEP]	181 ± 53

Source: doi:10.1101/2025.05.27.656499v1 (biorxiv, 2025)
